# “Also recorded” adds a separate entry of the source. Like-named read-outs stand apart in the source and are kept apart here.
# Legend:
# [1] = system: NIS protein; assay: Flow cytometry and immunofluorescence of NIS protein expression, NPA cells; assay type: cell-based, human; conditions: U0126 10 μM, Akti IV 0.5 μM, 30 h, control 3.4%
# Procedure: (§1) FIG. 6A-6D. […] After a serum starvation for 24 h, total RNA was isolated for expression analysis for the indicated thyroid iodide-metabolizing genes. RT-PCR analysis was performed for the expression of NIS in NPA cells. FIG. 6B) Flow cytometric measurement of NIS protein expression. NPA cells were treated with specific inhibitors (upper panel) as described in FIG. 1 or stably transfected with specific siRNAs to knock down BRAF and Akt-1/2, individually or in combination as described in FIG. 3 (lower panel). NIS protein levels were measured by flow cytometry. […] After a 30-h combined treatment with both U0126 and Akti IV (as in FIG. 6B), cells were analyzed by immunofluorescent microscopy using anti-NIS and FITC-coupled secondary antibody and double immunofluorescence with the red color representing 7-AAD nuclear staining and the green color representing NIS expression and localization. […] Cells were then washed and harvested for radioactivity measurement using a gamma-counter as described in the Materials and Methods. Data are expressed as the mean±SD of values from three assays. **, P<0.01, compared with control or empty vector.
# (§2) FIG. 14A-14C. […] NIS protein levels were measured by flow cytometry. […] Cells were then washed and harvested for radioactivity measurement using a gamma-counter as described in the Experimental Procedures. […]
# [2] = system: phosphorylation of Akt (p-Akt); assay: Western blotting of phosphorylated Akt in NPA cells; conditions: Akti IV 0.5 μM, 30 h
# Procedure: FIGS. 1A-1C Effects of suppression of the MAPK and PI3K/Akt pathways by specific inhibitors on NPA cells. FIG. 1A) Inhibition of ERK and Akt phosphorylation by suppression of MAPK and PI3K/Akt pathways using the MEK-specific inhibitor U0126 and the Akt-specific inhibitor Akti IV, respectively. NPA cells were treated with U0126 at 10 μM, or with Akti IV at 0.5 μM for 30 h. Cells were lysed for Western blotting assay. The activities of MAPK and PI3K/Akt pathways were reflected by the level of phosphorylated ERK and Akt detected with specific anti-phosphorylated ERK (p-ERK) and anti-phosphorylated Akt (p-Akt) antibodies. Immunoblotting with antibody against β-actin was used for quality control.
# Effects of suppression of the PI3K/Akt and MAP kinase pathways by specific inhibitors on thyroid cancer cells. FIG. 7 A) Inhibition of Akt and ERK phosphorylation by suppression of PI3K/Akt and MAP kinase pathways using the Akt-specific inhibitor Akti IV and the MEK-specific inhibitor U0126, respectively. NPA and KAT10 cells were treated with Akti IV at 0.5 and 2 μM, respectively, or with U0126 at 10 μM for 30 h. Cells were lysed for Western blotting assay. The activities of PI3K/Akt and MAP kinase pathways were reflected by the level of phosphorylated Akt and ERK detected with specific anti-phosphorylated Akt (p-Akt) and anti-phosphorylated ERK (p-ERK) antibodies. […]
# [3] = system: NPA cells; assay: MTT cell proliferation assay, NPA cells; conditions: 4 μM U0126, 0.2 μM Akti IV, 5-day course
# Procedure: FIG. 1B) Inhibition of cell proliferation by suppression of MAPK and PI3K/Akt pathways achieved with U0126 and Akti IV individually or in combination (U+A) as indicated. MTT assay was performed to evaluate cell proliferation over a 5-day course of treatment with U0126 and Akti IV.
# (§4) FIG. 7B) Inhibition of thyroid cancer cell proliferation by suppression of PI3K/Akt and MAP kinase pathways achieved with Akti IV and U0126 individually or in combination (U+A) as indicated. MTT assay was performed to evaluate cell proliferation over a 5-day course of treatment with Akti IV and U0126.
# [4] = system: thyroid genes (Tg, TSHR, NIS, TTF-1, TTF2); assay: Quantitative real-time PCR of thyroid iodide-metabolizing genes, KAT10 cells; assay type: cell-based, human; conditions: U0126 10 μM, Akti IV 2 μM, 30 h
# [5] = system: NIS protein; assay: Flow cytometry and immunofluorescence of NIS protein expression, KAT10 cells; assay type: cell-based, human; conditions: U0126 10 μM, Akti IV 2 μM, control 8.8%
# Procedure: FIG. 14A-14C. […] FIG. 14A) Flow cytometric measurement of NIS protein expression. […] NIS protein levels were measured by flow cytometry. The blue frames indicate the cells expressing NIS protein, including dead (right upper quadrant; positive for both 7-AAD and NIS) and living (right lower quadrant, positive only for NIS) cells. FIG. 14B) Immunofluorescent localization of NIS. After a 30-h combined treatment with both Akti IV and U0126 (as in FIG. 14A), cells were analyzed by immunofluorescent microscopy using anti-NIS and FITC-coupled secondary antibody and double immunofluorescence with the red color representing 7-AAD nuclear staining and the green color representing NIS expression and localization. […] FIG. 14C) In vitro radioiodide uptake. […] Cells were subsequently incubated with 1 μCi Na125I/0.5 ml/well on 12-well plates for 1 h. Cells were then washed and harvested for radioactivity measurement using a gamma-counter as described in the Experimental Procedures. Data are expressed as the mean±SD of values from three assays. **, P<0.01, compared with control or empty vector. […]
# [6] = system: NPA cells; assay: Radioactive iodide uptake assay, NPA cells; assay type: cell-based, human; conditions: NPA cells treated with inhibitors, 1 μCi Na125I, 1 h
# Procedure: as §1, §2
# [7] = system: KAT10 cells; assay: MTT cell proliferation assay, KAT10 cells; conditions: 4 μM U0126, 1 μM Akti IV, 5-day course
# Procedure: as §4
# [8] = system: thyroid iodide-handling genes (NIS, TSHR, Tg, TPO, FOXE1, TTF1); assay: RT-PCR / quantitative RT-PCR of thyroid iodide-handling genes, NPA cells; assay type: cell-based, human; conditions: U0126 10 μM, Akti IV 0.5 μM, 30 h
# [9] = system: phosphorylation of Akt (p-Akt); assay: Western blotting of phosphorylated Akt in KAT10 cells; conditions: Akti IV 2 μM, 30 h
# Procedure: Effects of suppression of the PI3K/Akt and MAP kinase pathways by specific inhibitors on thyroid cancer cells. […] NPA and KAT10 cells were treated with Akti IV at 0.5 and 2 μM, respectively, or with U0126 at 10 μM for 30 h. Cells were lysed for Western blotting assay. The activities of PI3K/Akt and MAP kinase pathways were reflected by the level of phosphorylated Akt and ERK detected with specific anti-phosphorylated Akt (p-Akt) and anti-phosphorylated ERK (p-ERK) antibodies. Immunoblotting with antibody against β-actin was used for quality control.
# Cells were lysed in RIPA buffer (Santa Cruz, Calif.). Cellular proteins were resolved by electrophoresis on a SDS-polyacrylamide (10%) gel (SDS-PAGE), transferred onto PVDF membranes (Amersham Pharmacia Biotech, Piscataway, N.J.), and immunoblotted with specific primary antibodies. Anti-BRAF (Sc-166), anti-phospho-Akt-1/2/3 (Sc-7985-R), anti-phospho-ERK (Sc-7383), and anti-Actin (Sc-1616-R) were purchased from Santa Cruz (Santa Cruz, Calif.). Anti-Akt-1 (#2967) and anti-Akt-2 (#2964) were purchased from Cell Signaling Technologies, Inc. (Beverly, Mass.). Antigen-antibody complexes were visualized using HRP-conjugated anti-mouse (Sc-2005, Santa Cruz, Calif.) or anti-rabbit (Sc-2004, Santa Cruz, Calif.) IgG antibodies and ECL Western Blotting Analysis System (Amersham Pharmacia).
# [10] = system: KAT10 cells; assay: Radioactive iodide uptake assay, KAT10 cells; assay type: cell-based, human; conditions: KAT10 cells treated with inhibitors, 1 μCi Na125I, 1 h
# Procedure: FIG. 14A-14C. […] FIG. 14A) Flow cytometric measurement of NIS protein expression. […] NIS protein levels were measured by flow cytometry. The blue frames indicate the cells expressing NIS protein, including dead (right upper quadrant; positive for both 7-AAD and NIS) and living (right lower quadrant, positive only for NIS) cells. FIG. 14B) Immunofluorescent localization of NIS. After a 30-h combined treatment with both Akti IV and U0126 (as in FIG. 14A), cells were analyzed by immunofluorescent microscopy using anti-NIS and FITC-coupled secondary antibody and double immunofluorescence with the red color representing 7-AAD nuclear staining and the green color representing NIS expression and localization. […] FIG. 14C) In vitro radioiodide uptake. […] Cells were subsequently incubated with 1 μCi Na125I/0.5 ml/well on 12-well plates for 1 h. Cells were then washed and harvested for radioactivity measurement using a gamma-counter as described in the Experimental Procedures. Data are expressed as the mean±SD of values from three assays. **, P<0.01, compared with control or empty vector.
# Thyroid cancer cells (1×10^6 cells/well) treated under the indicated conditions were seeded in 12-well plates. […] Cells were collected and radioactivity was counted by a gamma-counter.
# [11] = system: phosphorylation of ERK (p-ERK); conditions: KAT10 cells, U0126 10 μM, 30 h
# Source text: (§3) FIG. 7A-7C. […] Cells were lysed for Western blotting assay.
# [12] = system: phosphorylation of ERK (p-ERK); conditions: NPA cells, U0126 10 μM, 30 h
# Source text: Cells were lysed for Western blotting assay.
# as §3
# Cells were lysed in RIPA buffer.
SMILES,"NIS expression (cells expressing NIS protein, flow cytometry) [1] [%]",inhibition of phosphorylation of Akt (p-Akt) [2],inhibition of cell proliferation (MTT) [3],"expression of thyroid genes (Tg, TSHR, NIS, TTF1) [4]","NIS expression (cells expressing NIS protein, flow cytometry) [5] [%]",radioiodide uptake [6],inhibition of cell proliferation (MTT) [7],"expression of iodide-handling genes (NIS, TSHR, Tg, TTF1) [8]",inhibition of phosphorylation of Akt (p-Akt) [9],Na125I uptake [10],inhibition of phosphorylation of ERK (p-ERK) [11],inhibition of phosphorylation of ERK (p-ERK) [12]
"CC[n+]1c(/C=C/N(C)c2ccccc2)n(-c2ccccc2)c2ccc(-c3nc4ccccc4s3)cc21.[I-] [Akti IV, Akt inhibitor IV]",13.7,strongly inhibited,partially,restored,29,significantly increased,partially,restored; also recorded: induced or dramatically enhanced,strongly inhibited,significantly increased,–,–
N#CC(=C(/N)Sc1ccccc1N)/C(C#N)=C(\N)Sc1ccccc1N [U0126],6,–,partially,restored,11.8,significantly increased,partially,restored; also recorded: induced or dramatically enhanced,–,significantly increased,strongly inhibited,strongly inhibited

# From US9273318B2, “Induction of thyroid iodide-handling gene expression in human cancers” (THE JOHNS HOPKINS UNIVERSITY, priority 2008, dated 2016)
